From ChEMBL document CHEMBL5053510, “Discovery of AS-1763: A Potent, Selective, Noncovalent, and Orally Available Inhibitor of Bruton's Tyrosine Kinase” (J Med Chem, 2021)

Assays:
[1] = target: Tyrosine-protein kinase BTK (Homo sapiens, UniProt Q06187); experiment: Inhibition of human BTK-A using phosphorylated substrate in presence of ATP by microplate reader assay
OCI-Ly10 [2] = experiment: Antiproliferative activity against human OCILY10 cells harboring BTK C481S mutant […] gene assessed as reduction in cell viability after 96 hrs; type: functional, cell-based; details: OCI-Ly10, 96 h
OCI-Ly10 [3] = experiment: Antiproliferative activity against human OCILY10 cells assessed as reduction in cell proliferation measured after 96 hrs; type: functional, cell-based; details: OCI-Ly10, 96 h

Tyrosine-protein kinase BTK, sequence (Q06187 whole entry): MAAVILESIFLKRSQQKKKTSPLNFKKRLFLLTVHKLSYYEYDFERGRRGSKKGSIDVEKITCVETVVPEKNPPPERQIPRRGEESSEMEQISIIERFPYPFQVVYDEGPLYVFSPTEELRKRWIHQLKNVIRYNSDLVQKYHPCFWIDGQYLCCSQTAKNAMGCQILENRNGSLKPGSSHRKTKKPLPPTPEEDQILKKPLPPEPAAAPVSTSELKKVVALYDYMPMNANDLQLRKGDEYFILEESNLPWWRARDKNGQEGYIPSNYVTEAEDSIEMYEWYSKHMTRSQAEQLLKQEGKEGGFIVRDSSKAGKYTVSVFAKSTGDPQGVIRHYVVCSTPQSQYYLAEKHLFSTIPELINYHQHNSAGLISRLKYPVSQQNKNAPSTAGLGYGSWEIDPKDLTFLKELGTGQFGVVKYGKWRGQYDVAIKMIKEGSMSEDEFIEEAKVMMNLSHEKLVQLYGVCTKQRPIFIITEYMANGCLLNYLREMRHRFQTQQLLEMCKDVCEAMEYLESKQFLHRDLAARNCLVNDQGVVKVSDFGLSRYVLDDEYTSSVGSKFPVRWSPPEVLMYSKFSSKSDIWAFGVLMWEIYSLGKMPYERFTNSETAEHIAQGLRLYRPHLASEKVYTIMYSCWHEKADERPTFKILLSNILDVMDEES

IC50 [1]	IC50 (OCI-Ly10 [3])	Structure (SMILES)	IC50 (OCI-Ly10 [2])
0.71 nM		CC(=O)N1CC=C(c2cc3c(-c4cccc(-n5ccc6cc(C7CC7)cc(F)c6c5=O)c4CO)nc(N)nc3[nH]2)CC1	
0.54 nM		CN(C)C(=O)N1CC=C(c2cc3c(-c4cccc(-n5ccc6cc(C7CC7)cc(F)c6c5=O)c4CO)nc(N)nc3[nH]2)CC1	
0.69 nM	13 nM	Nc1nc(-c2cccc(-n3ccc4cc(C5CC5)cc(F)c4c3=O)c2CO)c2cc(C3=CCN(C(=O)CN4CCOCC4)CC3)[nH]c2n1	

The remaining lines, values behind:

Structure (SMILES)	IC50 [1]	IC50 (OCI-Ly10 [3])	IC50 (OCI-Ly10 [2])
C=CC(=O)N1CCC[C@@H](n2nc(-c3ccc(Oc4ccccc4)cc3)c3c(N)ncnc32)C1 [IBRUTINIB]			1030 nM
Nc1nc(-c2cccc(-n3ccc4cc(C5CC5)cc(F)c4c3=O)c2CO)c2cc[nH]c2n1	51 nM		
Nc1nc(-c2cccc(-n3ccc4cc(C5CC5)cc(F)c4c3=O)c2CO)c2cc(-c3ccncc3)[nH]c2n1	0.14 nM		
